Test results: patent US6531505B2, “Immunosuppressive agents” (priority 1998, dated 2003)
Entries after “also recorded” stand apart in the source; their conditions may differ.

Assays:
[1] = system: CCl4-induced liver injury in mice; assay: Hepatoprotection studies on CCl4-induced liver injury in mice; format: in vivo, ICR male mice; settings: for ALT / AST: serum, 20 hours after CCl4
Experimental: ICR male mice (8 mice for each group) were used. Astilbin (50 or 100 mg/kg) and RSG ext (100 or 200 mg/kg) were administered orally for 6 days. One hour after final administration, mice were intraperitoneally injected with 0.2% CCl4 in olive oil (0.2 ml/20 g of body weight).
For the control studies, only CCl4 injected mice without drug administration were used.
Then, 20 hours after administration of CCl4, the blood samples were collected, and used for determining the serum ALT and the serum AST activities by the conventional methods.

[2] = system: non-adherent cells isolated from NPC; assay: Apoptosis measurement No. 1, counting of apoptotic cells (Hoechst 33342); format: cell-based, mice; settings: 5×10^−5 g/ml, 1 hour, 37° C., FIG. 1
Experimental: (§1) Additionally, a part of NPC was incubated on the culture plate for 3 hours in order to separate adherent cells from non-adherent cells. […] HC and NPC isolated from liver injury mice 12 hours after elicitation, and fraction of adherent cells and non-adherent cells isolated from NPC were used. These cells were incubated with 5×10^−5 g/ml of astilbin and RSG ext, as the testing compounds, in RPMI 1640 medium at 37° C. for 1 hour, respectively. After incubation, the cells were stained with Hoechst 33342 (Molecular Probes, Inc., USA) for 1 minute at room temperature. After washed three times with RPMI 1640 medium, the obtained cells were fixed with 2% formaldehyde in phosphate buffer solution (PBS). The apoptotic cells among the total population were determined by counting a total of 200 cells in five different fields under fluorescent microscope. For the control studies, the cells treated without test compounds were incubated and followed by the same manner.

[3] = system: adherent cells isolated from NPC; assay: as above; format: cell-based, mice; settings: 5×10^−5 g/ml, 1 hour, 37° C., FIG. 1
Experimental: as §1

[4] = system: NPC and spleen cells isolated from normal mice; assay: Apoptosis measurement No. 2, DNA fragmentation assay (gel agarose electrophoresis); format: cell-based; settings: 5×10^−5 g/ml, 1 hour
[5] = system: HC isolated from liver injury mice; assay: ALT-releasing assay, co-culture of NPC with pre-treated HC; format: cell-based; settings: HC pre-treated with high concentration for more than 2 hours
Experimental: HC in WE medium was incubated with or without test compounds for 1 hour. Then, the HC was seeded onto 96-well microplates (2×10^4 cells/0.2 ml/wells) and incubated at 37° C. with 5% (v/v) CO2 in air for 5 hours. After 5 hours, HC monolayers were washed twice with the medium, and then 8×10^4 cells of NPC were added. […] The test compounds were the same ones as described in Experiment 2, above.

[6] = system: HC isolated from normal mice, treated with CCl4; assay: Hepatoprotection studies on CCl4-induced hepatocyte damage; format: cell-based; settings: 5×10^−6 to 1×10^−4 g/ml, HC treated 2 hours, then 0.2% CCl4 1 hour
Experimental: HC was isolated from the normal mice used in Experiment 8 above. The cells were treated for 2 hours with astilbin or RSG ext, then washed twice with WE medium solution. After washing, 0.1 ml of 0.2% CCl4 in olive oil was added to the cells, and the resulting cells were incubated for 1 hour. The ALT activity in the supernatants was determined by the conventional methods.
HC isolated from the normal mice was used. The cells were treated for 2 hours with test compounds. After treatment, the cells were washed twice, and incubated for 1 hour after addition of 0.1 ml of 0.2% CCl4. The obtained supernatants were collected for assaying the ALT activity by the conventional methods. For the control studies, non-treated HC with test compounds were used.

[7] = system: mice with liver injury induced by delayed-type hypersensitivity (DTH) reaction; assay: Studies for drug administration time (induction phase and effector phase); format: in vivo; settings: for histopathological examination of liver (inflammatory infiltration, hepatocellular coagulation necrosis): 18 hours after injection of picryl chloride into liver; for serum ALT activity: FIG. 5
Experimental: The liver injury was induced by the same manner as described in Experiment 1. To determine the effects of astilbin and RSG ext on the induction phase (during sensitization) and effector phase (after elicitation of liver injury), astilbin (50 and 100 mg/kg) and RSG ext (100 and 200 mg/kg) were administered orally to the mice for once a day after 10 days from the 1st sensitization, and for 3 times at 0, 5 and 10 hours after elicitation, respectively.
For the control studies, mice without drug administration were used, and for the positive control studies, 10 mg/kg cyclophosphamide (Cy) was administered percutaneously to the mice.
18 hours after the injection of picryl chloride into liver, the blood samples were collected for determining the serum ALT activity by the conventional methods. Histopathological examination of liver was also performed.

[8] = system: total NPC isolated from liver injury mice; assay: Apoptosis measurement No. 1, counting of apoptotic cells (Hoechst 33342); format: cell-based; settings: 5×10^−5 g/ml, 1 hour, 37° C., NPC from liver injury mice 12 hours after elicitation, FIG. 1
Experimental: HC and NPC isolated from liver injury mice 12 hours after elicitation, and fraction of adherent cells and non-adherent cells isolated from NPC were used. These cells were incubated with 5×10^−5 g/ml of astilbin and RSG ext, as the testing compounds, in RPMI 1640 medium at 37° C. for 1 hour, respectively. After incubation, the cells were stained with Hoechst 33342 (Molecular Probes, Inc., USA) for 1 minute at room temperature. After washed three times with RPMI 1640 medium, the obtained cells were fixed with 2% formaldehyde in phosphate buffer solution (PBS). The apoptotic cells among the total population were determined by counting a total of 200 cells in five different fields under fluorescent microscope. For the control studies, the cells treated without test compounds were incubated and followed by the same manner.

[9] = system: NPC isolated from liver injury mice; assay: ALT-releasing assay, co-culture of HC with pre-treated NPC; format: cell-based; settings: for ALT activity in supernatants of HC co-cultured with pre-treated NPC: Example 5 Experiment 2, NPC incubated with test compound 1 hour, co-culture 3 hours, FIG. 6
Experimental: HC and NPC were isolated from mice 12 hours after elicitation of liver injury. Thus obtained HC was suspended in WE medium, and was seeded onto 96-wells microplates (2×10^4 cells/0.2 ml/wells), and incubated at 37° C. for 5 hours with 5% (v/v) CO2 in air. After incubation, the HC was washed twice with WE medium and co-cultured with NPC of 8×10^4 cells for 3 hours. NPC was pre-incubated for 1 hour at 37° C. with various concentration of astilbin or RSG ext. After co-culture, the supernatants were collected for assaying ALT and AST activities by the conventional methods.
HC and NPC were isolated from liver injury mice 12 hours after elicitation, as the same manner described in Experiment 4. Thus the HC was suspended in WE medium, and was seeded onto 96-wells microplates (2×10^4 cells/0.2 ml/wells), and incubated at 37° C. for 5 hours with 5% (v/v) CO2 in air. After incubation, the HC was washed twice with WE medium and co-cultured with NPC of 8×10^4 cells, which were pre-treated with 5×10^−5 g/ml of astilbin or RSG ext for 5, 15, 30, 60 and 120 minutes respectively, at 37° C. for 3 hours. After co-culture, the supernatants were collected for assaying the ALT activity by the conventional methods.
HC (2×10^4 cells/0.2 ml/wells in WE medium) were seeded onto 96-well microplates and incubated at 37° C. with 5% (v/v) CO2 in air.
On the other hand, NPC was incubated in the medium with or without test compounds for 1 hour. The test compounds were smitilbin of the formula (I-a), astilbin of the formula (I-b), engeletin of the formula (I-c), and eucryphin of formula (I-d), respectively.
After 5 hours of the incubation, each monolayers of HC were washed twice with the medium, and then 8×10^4 cells of NPC, pre-treated with or without above test compounds, were added. After 3 hours of further incubation, the supernatants were collected and used for assaying the ALT activity by the conventional methods.

[10] = system: NPC isolated from liver injury mice; assay: Apoptosis measurement No. 2, DNA fragmentation assay (gel agarose electrophoresis); format: cell-based; settings: 5×10^−5 g/ml, 1 hour, NPC from liver injury mice 12 hours after elicitation
[11] = NPC pre-incubated 1 hour with various concentrations, co-culture with HC 3 hours, FIG. 2
[12] = dose 50 mg/kg orally for 6 days
[13] = dose 100 mg/kg orally for 6 days

COC(=O)c1cc(OC)c2c(c1-c1c(C(=O)OC)cc(OC)c3c1OCO3)OCO2 [BDD, biphenyl dimethyl dicarboxylate, reference compound]
ALT elevation ([1]; 150 mg/kg orally, positive control): significantly decreased
ALT ([1]; dose 150 mg/kg orally): 510.7 ± 27.0 Karmen unit
AST ([1]; dose 150 mg/kg orally): 675.6 ± 80.9 Karmen unit

C[C@@H]1O[C@@H](O[C@H]2C(=O)c3c(O)cc(O)cc3O[C@@H]2c2ccc(O)c(O)c2)[C@H](O)[C@H](O)[C@H]1O [astilbin]
ratio of apoptotic cells in non-adherent fraction isolated from NPC [2]: increased
ratio of apoptotic cells in the fraction of adherent cells of NPC [3]: no influence
DNA ladder pattern (DNA fragmentation) [4]: no DNA ladder' pattern appeared
ALT releasing [5]: not changed
ALT release from HC treated with CCl4 [6]: None of the test compounds
ALT release from HC treated with CCl4 ([6]; listed as Astilbin): did not affect
histopathological examination of liver (inflammatory infiltration, hepatocellular coagulation necrosis) [7]: improvement of liver injury
serum ALT activity ([7]; high dose (astilbin 100 mg/kg, RSG ext 200 mg/kg) orally in effector phase, 3 times at 0, 5 and 10 hours after elicitation, blood 18 hours after): significant decrease
serum ALT activity ([7]; low dose (astilbin 50 mg/kg, RSG ext 100 mg/kg) orally in effector phase): tendency of decreasing
ratio of apoptotic cells in total NPC [8]: significantly increased
ALT release ([9]; 5×10^−5 g/ml, NPC pre-incubated 1 hour, co-culture with HC 3 hours): complete inhibition
ALT releasing ([9]; 5×10^−5 g/ml, pre-treatment of NPC for more than 30 minutes): completely inhibited
ALT activity in supernatants of HC co-cultured with pre-treated NPC [9]: dose-dependently inhibited
ALT releasing activity of NPC [9, 11]: dose-dependently inhibited; also recorded: stronger activity than RSG ext
AST releasing activity of NPC [9, 11]: dose-dependently inhibited
releasing of ALT from HC ([9]; NPC pre-treated with 5×10^−5 g/ml for 5, 15, 30, 60 and 120 minutes, FIG. 3): inhibited time-dependently
effect on elevation of ALT and AST activities ([1]; astilbin 50 or 100 mg/kg, RSG ext 100 or 200 mg/kg orally for 6 days before CCl4): no effect
ALT [1, 12]: 901.6 ± 36.1 Karmen unit
AST [1, 12]: 670.4 ± 21.2 Karmen unit
ALT [1, 13]: 921.5 ± 40.2 Karmen unit
AST [1, 13]: 688.2 ± 45.6 Karmen unit
DNA ladder pattern (DNA fragmentation) [10]: DNA ladder' pattern appeared

O=P1(N(CCCl)CCCl)NCCCO1 (stereo not drawn) [cyclophosphamide, reference compound]
serum ALT activity ([7]; 10 mg/kg, given in both induction and effector phases, positive control): significant decrease
histopathological examination of liver (inflammatory infiltration, hepatocellular coagulation necrosis) [7]: improvement of liver injury

C[C@@H]1O[C@@H](O[C@H]2C(=O)c3c(O)cc(O)cc3O[C@@H]2c2ccc(O)cc2)[C@H](O)[C@H](O)[C@H]1O [engeletin]
ALT release from HC treated with CCl4 [6]: None of the test compounds
ALT activity in supernatants of HC co-cultured with pre-treated NPC [9]: dose-dependently inhibited

C[C@@H]1O[C@@H](Oc2coc3cc(O)cc(O)c3c2=O)[C@H](O)[C@H](O)[C@H]1O [eucryphin]
ALT release from HC treated with CCl4 [6]: None of the test compounds
ALT activity in supernatants of HC co-cultured with pre-treated NPC [9]: much stronger inhibitory effect

C[C@@H]1O[C@@H](O[C@@H]2C(=O)c3c(O)cc(O)cc3OC2c2cc(O)cc(O)c2)[C@H](O)[C@H](O)[C@H]1O (stereo partly drawn) [smitilbin]
ALT release from HC treated with CCl4 [6]: None of the test compounds
ALT activity in supernatants of HC co-cultured with pre-treated NPC [9]: dose-dependently inhibited
